The source made the active and inactive calls. The calls are words filed in the database; no cut-off is given here. Bounds are passed on as bounds.

In one assay the test system is Leishmania donovani. The experiment in a line: Antileishmanial activity against amastigote stage of Leishmania donovani MHOM/ET/67/HU3 infected in mouse RAW264.7 cells assessed as inhibition of parasite growth after 48 hrs by SYBR green I incorporation assay. It is filed as functional, organism-based.
Details: not given
For `CC(=O)OC[C@H]1O[C@@H](n2cc(-c3cc(-c4ccccc4)on3)c(=O)[nH]c2=O)[C@H](OC(C)=O)[C@@H]1OC(C)=O`, the “growth inhibition (GI)” value is “inactive”. For the molecule `CC(=O)OC[C@@H]1C=C[C@H](n2cc(-c3cc(-c4ccccc4)on3)c(=O)[nH]c2=O)O1`, the “growth inhibition (GI)” value is “inactive”. The same measure, in the same setting: as for `CC(=O)OC[C@H]1O[C@@H](n2cc(-c3cc(CBr)on3)c(=O)[nH]c2=O)C[C@@H]1OC(C)=O`, the entry is “inactive”. Same read-out and setting: as for `CC(=O)OC[C@H]1O[C@@H](n2cc(-c3cc(-c4ccccc4)on3)c(=O)[nH]c2=O)C[C@@H]1OC(C)=O`, the entry is “inactive”. Turning to `CC(=O)OC[C@H]1O[C@@H](n2cc(-c3cc(-c4ccc(Br)cc4)on3)c(=O)[nH]c2=O)C[C@@H]1OC(C)=O`, the “growth inhibition (GI)” value was “inactive”.

For the molecule `CC(=O)OC[C@H]1O[C@@H](n2cc(-c3cc(-c4ccccc4)on3)c(=O)[nH]c2=O)C[C@@H]1N=[N+]=[N-]`, the “growth inhibition (GI)” value was “inactive”.

Staying with this assay, now noted: MHOM/ET/67/HU3, RAW264.7, 48 h.
Usually IC50 stands for the concentration at which inhibition is half-maximal. `CCCCCCCCc1cc(-c2cn([C@H]3C[C@H](OC(C)=O)[C@@H](COC(C)=O)O3)c(=O)[nH]c2=O)no1`: the IC50 amounted to 20900 nM.

`CC(=O)OC[C@H]1O[C@@H](n2cc(-c3cc(-c4ccc(F)cc4)on3)c(=O)[nH]c2=O)C[C@@H]1OC(C)=O`: the IC50 turned out to be 700 nM.

As to `CCCCCCCCc1cc(-c2cn([C@H]3C[C@H](O)[C@@H](CO)O3)c(=O)[nH]c2=O)no1`, the IC50 is greater than 12500 nM. Consider `O=c1[nH]c(=O)n([C@@H]2O[C@H](CO)[C@@H](O)[C@H]2O)cc1-c1cc(-c2ccc(F)cc2)on1`, for which the IC50 was determined as 1470 nM. The same measure, in the same setting: the result for `C[C@@H]1[C@H](O)[C@@H](C)/C=C/C=C/C=C/C=C/C=C/C=C/C=C/[C@H](O[C@@H]2O[C@H](C)[C@@H](O)[C@H](N)[C@@H]2O)C[C@@H]2O[C@](O)(C[C@@H](O)C[C@@H](O)[C@H](O)CC[C@@H](O)C[C@@H](O)CC(=O)O[C@H]1C)C[C@H](O)[C@H]2C(=O)O` [AMPHOTERICIN B] reads 310 nM; that for `O=c1[nH]c(=O)n([C@H]2C[C@H](O)[C@@H](CO)O2)cc1-c1cc(CO)on1`, 730 nM; that for `CC(=O)OC[C@H]1O[C@@H](n2cc(-c3cc(-c4ccc(C)cc4)on3)c(=O)[nH]c2=O)C[C@@H]1OC(C)=O`, 1700 nM. On the same count and under the same terms, as for `Cc1ccc(-c2cc(-c3cn([C@H]4C[C@H](O)[C@@H](CO)O4)c(=O)[nH]c3=O)no2)cc1`, the figure is 610 nM. The same measure, in the same setting: the result for `[N-]=[N+]=N[C@H]1C[C@H](n2cc(-c3cc(CO)on3)c(=O)[nH]c2=O)O[C@@H]1CO` reads 490 nM; that for `Nc1nc(=O)n([C@H]2C[C@H](O)[C@@H](CO)O2)cc1-c1cc(-c2ccccc2)on1`, 610 nM. On to `CC(=O)OC[C@H]1O[C@@H](n2cc(-c3cc(CO)on3)c(N)nc2=O)C[C@@H]1OC(C)=O`, for which the IC50 was determined as 3130 nM. The same measure, in the same setting: as for `CC(=O)OC[C@H]1O[C@@H](n2cc(-c3cc(-c4ccc(F)cc4)on3)c(=O)[nH]c2=O)[C@H](OC(C)=O)[C@@H]1OC(C)=O`, the figure is 780 nM; as for `O=c1[nH]c(=O)n([C@H]2C=C[C@@H](CO)O2)cc1-c1cc(-c2ccccc2)on1`, 4560 nM; as for `CC(=O)OC[C@H]1O[C@@H](n2cc(-c3cc(CO)on3)c(=O)[nH]c2=O)C[C@@H]1OC(C)=O`, 3390 nM. `CCCCCCCCCCCCCCCCOP(=O)([O-])OCC[N+](C)(C)C` [MILTEFOSINE]: the IC50 stood at 5750 nM. Still for that read-out and setting: as for `O=c1[nH]c(=O)n([C@H]2C[C@H](O)[C@@H](CO)O2)cc1-c1cc(-c2ccc(F)cc2)on1`, the figure is 580 nM; as for `CC(=O)OC[C@H]1O[C@@H](n2cc(-c3cc(-c4ccccc4)on3)c(N)nc2=O)C[C@@H]1OC(C)=O`, 1610 nM. As to `CC(=O)OC[C@H]1O[C@@H](n2cc(-c3cc(-c4ccc(F)cc4)on3)c(=O)[nH]c2=O)C[C@@H]1N=[N+]=[N-]`, the IC50 was greater than 12500 nM. Still for that read-out and setting: the result for `O=c1[nH]c(=O)n([C@H]2C[C@H](O)[C@@H](CO)O2)cc1-c1cc(-c2ccccc2)on1` reads 760 nM. The same measure, in the same setting: the result for `CC(=O)OC[C@H]1O[C@@H](n2cc(-c3cc(CO)on3)c(=O)[nH]c2=O)C[C@@H]1N=[N+]=[N-]` reads greater than 12500 nM.

For the origin of these results see ChEMBL document CHEMBL3588854, “Synthesis of 5-isoxazol-3-yl-pyrimidine nucleosides as potential antileishmanial agents” (Bioorg Med Chem Lett, 2015).
